The results in this text go back to US12448383B2, “Compounds and methods for treatment of viral infections” (priority 2022, dated 2025).

One may read the CC50 as the concentration that lowers cell viability or growth by half. What is called EC50 is the midpoint of the concentration-response curve.

Data set [1] relates to Caco-2 cells (clone C2BBe1). Put plainly: CACO-2 permeability. It is filed as in vitro ADME. Set-up: unit not given here. The conditions noted are these: for DM Caco2 A to B: apical to basolateral, donor pH 6.5, receiver pH 7.4; for DM Caco2 B to A: basolateral to apical. How it is done: Pre-plated Caco-2 cells (clone C2BBel) were obtained from Sigma-Aldrich, Inc. (Atlanta, GA). Cell monolayers were grown to confluence on collagen-coated, microporous, polycarbonate membranes in 24-well transwell plates for 21 days. The permeability assay buffer in donor wells was Hanks' balanced salt solution (HBSS) containing 10 mM HEPES and 15 mM glucose at a pH of 6.5 containing 200 μM BNPP. The receiver wells used HBSS buffer containing 10 mM HEPES and 15 mM glucose at a pH of 7.4 and supplemented with 1°% BSA. After an initial equilibration with transport buffer, TEER values were read to test membrane integrity. The experiment was started by the addition of buffers containing test compounds, 200 μl and 1000 μl in the apical and basolateral chamber, respectively. At 0- and 2-hour post dose, 10 μL was sampled from donor compartment and was immediately diluted in 190 μL of 20% methanol. At 1 and 2 hours post dose, 100 μl of solution was taken from the receiver compartments and was immediately diluted in 100 μl of 20% methanol. Removed buffer was replaced with fresh buffer and a correction was applied to all calculations for the removed material. Each compound was tested in 2 separate replicate wells for each condition. All samples were then extracted with 400 μl 100% acetonitrile with internal standard to precipitate protein. Cells were dosed on the apical or basolateral side to determine forward (A to B) and reverse (B to A) permeability. To test for non-specific binding and compound instability, the total amount of drug was quantitated at the end of the experiment and compared to the material present in the original dosing solution as a percent recovery. […] Samples were analyzed by LC-MS/MS.
(Caco-2 cells form a polarised layer with tight junctions and transporters.)

A short description of another data set: Plasma stability. Type of data set: in vitro ADME. Also noted: unit not given here. The settings on record: 37° C., 2 μM substrate. How it is done: At 0.05, 0.5, 1, 2, 3 and 4 hr, […] aliquots of the reaction mixture were transferred to plates containing […] of IS/Q quenching solution. After quenching, the plates were centrifuged at 3000 g for 30 minutes, and 150 μL supernatant was diluted with 150 μL water. Aliquots ([…]) of the diluted supernatant were analyzed on a Thermo Q-Exactive mass spectrometer as described below.
Mobile phase A consisted of 0.1% (v/v) formic acid in water. Mobile phase B consisted of 0.1% (v/v) formic acid in acetonitrile. Elution of analytes was achieved by a series of linear gradients of acetonitrile in water containing 0.1°(v/v) formic acid. The mass spectrometer was calibrated on a weekly basis and mass tolerance of 5 ppm was used.

A short description of data set [2]: CC50 MT4 cytotoxicity (Cell-Titer Glo). Type of data set: cell-based. The settings on record: human. The protocol: Cytotoxicity of the compounds was determined in uninfected cells using the cell viability reagent in a similar fashion as described before for other cell types (Cihlar et al., Antimicrob Agents Chemother. 2008, 52(2):655-65). HEp-2 (1.5×10^3 cells/well) and MT-4 (2×10^3 cells/well) cells were plated in 384-well plates and incubated with the appropriate medium containing 3-fold serially diluted compound ranging from 15 nM to 100,000 nM. Cells were cultured for 4-5 days at 37° C. Following the incubation, the cells were allowed to equilibrate to 25° C., and cell viability was determined by adding Cell-Titer Glo viability reagent. The mixture was incubated for 10 min, and the luminescence signal was quantified using an Envision plate reader. Untreated cell and cells treated at 2 μM puromycin (Sigma, St. Louis, MO) serve as 100% and 0% cell viability control, respectively. The percent of cell viability was calculated for each tested compound concentration relative to the 0% and 100% controls and the CCso value was determined by non-linear regression as a compound concentration reducing the cell viability by 50%.

Data set [3] in a line: GI S9 stability - no PMSF. Type of data set: in vitro ADME. Also noted: GIS9-HUMAN-NoPMSF T1/2: unit: min. The conditions noted are these: human intestinal S9, PMSF-free; for half-life at 2 µM: pH 7.4, read-out: GIS9-HUMAN-NoPMSF T1/2. The protocol: Duplicate aliquots of test compound or positive control substrate (GS-7340) were added to S9 stock diluted with 100 mM phosphate buffered saline, pH 7.4, to obtain a protein concentration of 1.0 mg/mL. The S9 metabolic reactions were initiated by the addition of the substrates to the S9 reaction mixture to a final concentration of 2 μM. At 0, 10, 20, 30, 60 and 120 min, […] aliquots of the reaction mixture were transferred to plates containing […] of IS/Q solution. After quenching, the plates were centrifuged at 3000 g for 30 minutes, and 150 μL aliquots of each supernatant were diluted with 150 μL water. Aliquots ([…]) of the diluted supernatant were analyzed on a Thermo Q-Exactive mass spectrometer as described below. GI S9 Stability—No phenylmethylsulfonyl fluoride (PMSF): Similar to the procedure described above, test compounds were incubated at 2 μM with 1 mg/mL PMSF-free Intestinal S9 fractions. Samples are removed at 6 time points over the course of a 120 min experiment and the parent compound disappreance and reference compound A formation is determined by mass spectrometry.
Example K: Liquid Chromatography/Mass Spectroscopy Methods for S9 and Plasma Stability
Quantification of test compounds, Reference Compound A (S9 stability assay nucleoside metabolite), and controls was performed by analyte/internal standard peak area ratio (PAR) values measured on a Thermo Q-Exactive mass spectrometer coupled to a Dionex UltiMate 3000 HPLC with a Leap Technologies HTC PAL autosampler. The column used for analysis of test compounds and Reference Compound A was a Waters Acquity BEH C18 ([…] particle size, 2.1′50 mm). The column used for control (GS-7340) was a Thermo Hypersil GOLD ([…] particle size, 2.1′50 mm). Mobile phase A consisted of 0.1% (v/v) formic acid in water. Mobile phase B consisted of 0.1% (v/v) formic acid in acetonitrile. Elution of analytes was achieved by a series of linear gradients of acetonitrile in water containing 0.1°(v/v) formic acid. The mass spectrometer was calibrated on a weekly basis and mass tolerance of 5 ppm was used.

Data set [4] concerns Respiratory syncytial virus recombinant with luciferase (RSV-Luc5) in Normal Human Bronchial Epithelial (NHBE) cells. Put plainly: microbe, parasite or virus in culture. Type of data set: cell-based. The settings on record: 72 h, read-out: RSV NHBE EC50.
Data set [5] concerns SARS Coronavirus 2 recombinant with NanoLuc (SARS-CoV2-NLuc) in A549-hACE2 cells. Put plainly: organism not typed. Type of data set: cell-based. The conditions noted are these: 48 h; read-out: SARS-CoV2 EC50.

Where only a bound is given, the exact number is not on record here.

Regarding `CC(=O)OC[C@H]1O[C@@](C#N)(c2ccc3c(N)ncnn23)[C@H](OC(C)=O)[C@@H]1OC(C)=O` [3rd Reference Ester Compound], in data set [1], the “DM Caco2 A to B” value was 5.07 and the “DM Caco2 B to A” value is 8.91.
With `N#C[C@@]1(c2ccc3c(N)ncnn23)O[C@H](COC(=O)OC2CCC2)[C@@H](O)[C@H]1O` [Compound 37, ((2R,3S,4R,5R)-5-(4-aminopyrrolo[2,1-f][1,2,4]triazin-7-yl)-5-cyano-3,4-dihydroxytetrahydrofuran-2-yl)methyl cyclobutyl carbonate], in data set [1], the “DM Caco2 A to B” value is reported as 0.5 and the “DM Caco2 B to A” value is 7.54. Moreover, in the data set “Plasma stability”, the “STA Human Plasma 37” value is reported as 53. The compound further registered a CC50 in data set [2] of more than 50 µM. Moreover, in data set [3], the half-life at 2 µM was found to be 35.3 s. In addition, the EC50 in data set [4] stood at 4.75 µM. In addition, in data set [5], the EC50 was 3.15 µM.
Consider `CC1(OC(=O)OC[C@H]2O[C@@](C#N)(c3ccc4c(N)ncnn34)[C@H](O)[C@@H]2O)CCCCCC1` [Compound 55, ((2R,3S,4R,5R)-5-(4-aminopyrrolo[2,1-f][1,2,4]triazin-7-yl)-5-cyano-3,4-dihydroxytetrahydrofuran-2-yl)methyl (1-methylcycloheptyl) carbonate], for which, in data set [1], the “DM Caco2 A to B” value is listed as 0.38 and the “DM Caco2 B to A” value stood at 1.89. Further, the “STA Human Plasma 37” value in the data set “Plasma stability” is reported as 75.665. In data set [2], this compound showed a CC50 of more than 50 µM. In data set [3], the half-life at 2 µM was 35.8 s. The EC50 in data set [4] worked out at 1.34 µM. Moreover, the EC50 in data set [5] came to 2.9 µM.
As for `CC1(OC(=O)OC[C@H]2O[C@@](C#N)(c3ccc4c(N)ncnn34)[C@H](O)[C@@H]2O)CCCCCCC1` [Compound 57, ((2R,3S,4R,5R)-5-(4-aminopyrrolo[2,1-f][1,2,4]triazin-7-yl)-5-cyano-3,4-dihydroxytetrahydrofuran-2-yl)methyl (1-methylcyclooctyl) carbonate], the “STA Human Plasma 37” value in the data set “Plasma stability” is 317.5. The CC50 in data set [2] is more than 50 µM. In addition, the EC50 in data set [4] was determined as 2.45 µM; in data set [5], 2.29 µM.
On to `C=CCOC(=O)OC[C@H]1O[C@@](C#N)(c2ccc3c(N)ncnn23)[C@H](O)[C@@H]1O` [Compound 64, Ally (((2R,3S,4R,5R)-5-(4-aminopyrrolo[2,1-f][1,2,4]triazin-7-yl)-5-cyano-3,4-dihydroxytetrahydrofuran-2-yl)methyl) carbonate], for which, in data set [1], the “DM Caco2 A to B” value is listed as 0.39 and the “DM Caco2 B to A” value worked out at 4.6. Further, in “Plasma stability”, the “STA Human Plasma 37” value was 3. This compound also returned a CC50 in data set [2] of more than 50 µM. Also, in data set [3], the half-life at 2 µM came to 59.6 s. In addition, in data set [4], the EC50 was 2.66 µM. In addition, the EC50 in data set [5] stood at 4.21 µM.
Regarding `CC(C)C(C)(C)OC(=O)OC[C@H]1O[C@@](C#N)(c2ccc3c(N)ncnn23)[C@H](O)[C@@H]1O` [Compound 68, ((2R,3S,4R,5R)-5-(4-aminopyrrolo[2,1-f][1,2,4]triazin-7-yl)-5-cyano-3,4-dihydroxytetrahydrofuran-2-yl)methyl (2,3-dimethylbutan-2-yl) carbonate], in data set [1], the “DM Caco2 A to B” value came out at 0.98. For the same compound, the “DM Caco2 B to A” value in data set [1] was 7.09. In the data set “Plasma stability”, the “STA Human Plasma 37” value came out at 266.43. In data set [2], the CC50 is more than 50 µM. Moreover, in data set [3], the half-life at 2 µM was 2760 s. For the same compound, the EC50 in data set [4] came to 1.3 µM; in data set [5] it was 3.13 µM.
On to `CC(C)(OC(=O)OC[C@H]1O[C@@](C#N)(c2ccc3c(N)ncnn23)[C@H](O)[C@@H]1O)c1ccccn1` [Compound 98, [(2R,3S,4R,5R)-5-(4-aminopyrrolo[2,1-f][1,2,4]triazin-7-yl)-5-cyano-3,4-dihydroxy-tetrahydrofuran-2-yl]methyl [1-methyl-1-(2-pyridyl)ethyl] carbonate], for which, in data set [1], the “DM Caco2 A to B” value is reported as 0.02 and the “DM Caco2 B to A” value worked out at 5.65. Also, the “STA Human Plasma 37” value in “Plasma stability” came to 884.09. Also, the “GIS9-HUMAN-NoPMSF T1/2” value in data set [3] worked out at 789. In addition, in data set [4], the EC50 was determined as 9 µM.
Turning to `CC(C)(OC(=O)OC[C@H]1O[C@@](C#N)(c2ccc3c(N)ncnn23)[C@H](O)[C@@H]1O)c1cccnc1` [Compound 99, [(2R,3S,4R,5R)-5-(4-aminopyrrolo[2,1-f][1,2,4]triazin-7-yl)-5-cyano-3,4-dihydroxy-tetrahydrofuran-2-yl]methyl [1-methyl-1-(3-pyridyl)ethyl] carbonate], in data set [1], the “DM Caco2 A to B” value turned out to be 0.11 and the “DM Caco2 B to A” value came out at 2.47. In addition, in the data set “Plasma stability”, the “STA Human Plasma 37” value came to 173.49. In addition, the half-life at 2 µM in data set [3] is 5800 s. In data set [4], the EC50 stood at 3.15 µM.
Regarding `COC(=O)OC[C@H]1O[C@@](C#N)(c2ccc3c(N)ncnn23)[C@@H]2OC(=O)O[C@@H]21` [Compound 127, ((3aR4R,6R,6aR)-6-(4-aminopyrrolo[2,1-f][1,2,4]triazin-7-yl)-6-cyano-2-oxotetrahydrofuro[3,4-d][1,3]dioxol-4-yl)methyl methyl carbonate], the “STA Human Plasma 37” value in the data set “Plasma stability” is 12.071. The 50% cytotoxic concentration (CC50) in data set [2] was more than 50 µM. For the same compound, the half-life at 2 µM in data set [3] came out at 57.4 s. Moreover, the figures for the EC50 in data set [4] and in data set [5] were 5.06 µM and 13.7 µM, respectively.
Turning to `C=CCCC(=O)O[C@H]1[C@@H](OC(=O)CCC=C)[C@](C#N)(c2ccc3c(N)ncnn23)O[C@@H]1COC(=O)OC(C)C` [Compound 134, (2R,3R,4R,5R)-2-(4-aminopyrrolo[2,1-f][1,2,4]triazin-7-yl)-2-cyano-5-(((isopropoxycarbonyl)oxy)methyl)tetrahydrofuran-3,4-diyl bis(pent-4-enoate)], in the data set “Plasma stability”, the “STA Human Plasma 37” value worked out at 65.405. This compound displayed a CC50 in data set [2] of more than 50 µM. The EC50 was 1.4 µM in data set [4] and 5.13 µM in data set [5].
As for `N#C[C@@]1(c2ccc3c(N)ncnn23)O[C@H](CO)[C@@H](O)[C@H]1O` [Reference Compound A, (2R,3R,4S,5R)-2-(4-aminopyrrolo[2,1-f][1,2,4]triazin-7-yl)-3,4-dihydroxy-5-(hydroxymethyl)tetrahydrofuran-2-carbonitrile, reference compound], in data set [1], the “DM Caco2 A to B” value is 0.12 and the “DM Caco2 B to A” value was 1.52.
